Experimental data: US9290791B2, “Reagents and methods for sirtuin capture” (CORNELL UNIVERSITY, priority 2010, dated 2016)

Tests used:
[1] = system: class III HDACs (sirtuins); assay: Sirtuin inhibitor screening pulldown assay on sirtuin mixture; format: biochemical; conditions: 20 μM inhibitor; mixture of SirT1, SirT2, SirT3, SirT5, SirT6; FIG. 10
Procedure: (§1) The key criterion for our pulldown technology is the formation of a stalled thioimidate complex with a cross-linkable moiety at the active site on sirtuins. If the presence of a sirtuin inhibitor can interrupt thioimidate formation, there will be less or no sirtuin can be harvested later on.
(§2) Pulldown assay: a typical reaction was performed in 100 mM phosphate buffer pH 7.5 in a total volume of 100 μL. Each reaction contained 500 μM of NAD^+, 200 μM of 4-azido-BzlK(AcS)AAOMe, and various concentrations of potential inhibitors. One control experiment which contained 500 μM of NAD^+ only were run at the same time. Reactions were initiated by addition of enzymes with final concentrations: 5 μM for SirT1, 3.4 μM for SirT2, 4.9 μM for SirT3, 5.04 μM for SirT5 and 5.35 μM for SirT6. Reactions were incubated at 37° C. for 30 min and then alkynyl-biotin was added to each sample to a final concentration of 500 μM followed by 3 μL of freshly premixed click chemistry cocktail: CuSO4 (final concentration 1 mM), tris[(1-benzyl-1H-1,2,3-triazol-4-yl)methyl]amine (TBTA, final concentration 600 μM) and tris(2-carboxyethyl)phosphine hydrochloride (TCEP, final concentration 2 mM). The samples were incubated at room temperature for 30 min. Then, 50 μL streptavidin beads (pretreated with 1 mM of BSA) were added to each sample and the incubation were continued at room temperature for 1 h. […]

SirT3 = target: T1, SirT3 (Homo sapiens, UniProt Q9NTG7); assay: Sirtuin inhibitor screening pulldown assay (NAD+, azido-thiotripeptide, alkynyl-biotin; SDS-PAGE, silver stain); format: biochemical; conditions: 500 μM inhibitor; sirtuin mixture, 4.9 μM SirT3, 500 μM NAD+, 200 μM 4-azido-BzlK(AcS)AAOMe; FIG. 10
T1 construct: poly histidine tag (N); made in house; host or cells: E. coli BL21-CodonPlus(DE3)-RIPL
T1 sequence (Q9NTG7 1-399): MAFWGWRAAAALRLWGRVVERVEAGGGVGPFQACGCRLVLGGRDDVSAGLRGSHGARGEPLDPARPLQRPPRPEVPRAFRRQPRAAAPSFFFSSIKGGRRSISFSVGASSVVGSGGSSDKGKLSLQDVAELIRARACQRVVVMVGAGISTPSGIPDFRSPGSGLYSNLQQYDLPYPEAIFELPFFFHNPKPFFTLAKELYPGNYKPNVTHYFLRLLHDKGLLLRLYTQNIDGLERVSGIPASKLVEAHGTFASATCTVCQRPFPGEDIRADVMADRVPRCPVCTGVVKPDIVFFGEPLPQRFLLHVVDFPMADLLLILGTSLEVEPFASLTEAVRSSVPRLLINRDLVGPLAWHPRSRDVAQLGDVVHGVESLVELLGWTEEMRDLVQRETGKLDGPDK
Procedure: as §1, §2

SirT1 [2] = target: T2, SirT1 (Homo sapiens, UniProt Q96EB6); assay: as above; format: biochemical; conditions: 500 μM inhibitor; sirtuin mixture, 5 μM SirT1, 500 μM NAD+, 200 μM 4-azido-BzlK(AcS)AAOMe; FIG. 10
Procedure: as §1, §2

SirT5 = target: T3, SirT5 (Homo sapiens, UniProt Q9NXA8); assay: as above; format: biochemical; conditions: 500 μM inhibitor; sirtuin mixture, 5.04 μM SirT5, 500 μM NAD+, 200 μM 4-azido-BzlK(AcS)AAOMe; FIG. 10
T3 construct: SirT5(34-302); poly histidine tag (N); made in house; host or cells: E. coli BL21-CodonPlus(DE3)-RIPL
T3 sequence (Q9NXA8 34-302): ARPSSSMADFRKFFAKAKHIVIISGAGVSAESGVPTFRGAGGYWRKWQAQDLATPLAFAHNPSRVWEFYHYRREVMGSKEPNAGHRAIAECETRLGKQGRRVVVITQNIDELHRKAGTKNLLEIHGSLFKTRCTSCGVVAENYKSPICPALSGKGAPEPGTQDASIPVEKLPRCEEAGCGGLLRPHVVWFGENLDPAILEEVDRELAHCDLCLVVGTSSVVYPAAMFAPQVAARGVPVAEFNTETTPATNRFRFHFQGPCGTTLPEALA
Procedure: as §1, §2

sirtuin = conditions: known sirtuin inhibitor; cited from earlier work
SirT1 [3] = target: T2, SirT1; assay: HPLC deacetylation assay of SirT1 with p53mer; format: biochemical; conditions: 3 μM SirT1, 500 μM NAD+, 300 μM p53mer, various concentrations of suramin; FIG. 11
Procedure: HPLC assay: reactions were performed in 100 mM phosphate buffer pH 7.5 in a total volume of 50 μL. Each reaction contained 500 μM of NAD^+, 300 μM of p53mer and various concentrations of suramin. Reactions were initiated by addition of SirT1 to a final concentration of 3 μM. A negative control which contained 500 μM of NAD^+ and 300 μM of p53mer, but was quenched by addition of TFA before the addition of enzyme was run at the same time. The reactions were incubated at 37° C. for 20 min before being quenched by 8 of 10% TFA. The samples were then injected on an HPLC fitted to a Macherey-Nagel Nucleosil C18 column. AADPR, NAD^+ and NAM peaks were resolved using a gradient of 0 to 10% methanol in 20 mM ammonium acetate. Chromatograms were analyzed at 260 nm.

T2 sequence (Q96EB6 whole entry, species assumed): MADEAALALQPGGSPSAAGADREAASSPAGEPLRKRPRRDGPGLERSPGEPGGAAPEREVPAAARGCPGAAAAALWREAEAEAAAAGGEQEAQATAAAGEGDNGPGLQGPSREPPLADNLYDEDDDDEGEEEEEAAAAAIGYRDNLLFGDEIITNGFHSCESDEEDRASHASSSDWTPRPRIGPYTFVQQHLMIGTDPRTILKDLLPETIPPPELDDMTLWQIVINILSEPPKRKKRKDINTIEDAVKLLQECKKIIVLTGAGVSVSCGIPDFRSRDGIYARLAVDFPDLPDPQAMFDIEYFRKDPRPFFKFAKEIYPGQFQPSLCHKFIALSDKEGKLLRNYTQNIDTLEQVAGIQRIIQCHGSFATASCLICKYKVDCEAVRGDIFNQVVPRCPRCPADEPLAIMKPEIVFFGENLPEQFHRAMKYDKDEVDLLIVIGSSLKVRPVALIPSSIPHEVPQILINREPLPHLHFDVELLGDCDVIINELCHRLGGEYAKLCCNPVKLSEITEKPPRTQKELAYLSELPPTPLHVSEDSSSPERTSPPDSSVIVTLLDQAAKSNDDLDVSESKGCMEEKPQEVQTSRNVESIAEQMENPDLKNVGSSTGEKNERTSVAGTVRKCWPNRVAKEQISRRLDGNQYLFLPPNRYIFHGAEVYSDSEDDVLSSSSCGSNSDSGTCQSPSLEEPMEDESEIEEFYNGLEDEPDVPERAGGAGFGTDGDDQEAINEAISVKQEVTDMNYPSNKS

| Structure (SMILES) | effect on sirtuin capture in pulldown assay [1] | SirT3 captured by standard pulldown assay (SirT3) | SirT1 captured by standard pulldown assay (SirT1 [2]) | SirT5 captured by standard pulldown assay (SirT5) | IC50 (sirtuin) | inhibition confirmed by HPLC assay (SirT1 [3]) |
| --- | --- | --- | --- | --- | --- | --- |
| CC(/C=C/C(=O)NO)=C\[C@@H](C)C(=O)c1ccc(N(C)C)cc1 [TSA, trichostatin A] | no effects | – | – | – | – | – |
| Cc1ccc(C(=O)Nc2ccc(S(=O)(=O)O)c3cc(S(=O)(=O)O)cc(S(=O)(=O)O)c23)cc1NC(=O)c1cccc(NC(=O)Nc2cccc(C(=O)Nc3cc(C(=O)Nc4ccc(S(=O)(=O)O)c5cc(S(=O)(=O)O)cc(S(=O)(=O)O)c45)ccc3C)c2)c1 [Suramin, suramin] | – | less | less | less | low micromolar range | confirmed |
